Test results reported in patent US20080234262A1 (Wyeth, priority 2007, published 2008).

Molecular target: PI3K (Homo sapiens, UniProt P42336)
Experiment: Fluorescence polarization assay for PI3K;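 also: PI3K kinase reaction on PIP2 with ATP, 30-60 min, product sensed by GST-GRP with red probe in fluorescence polarization (mP), controls without enzyme and at zero time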
Type: biochemical
Details: PI3Kα; read-out: PI3Kα IC50

PI3K, sequence (P42336 whole entry): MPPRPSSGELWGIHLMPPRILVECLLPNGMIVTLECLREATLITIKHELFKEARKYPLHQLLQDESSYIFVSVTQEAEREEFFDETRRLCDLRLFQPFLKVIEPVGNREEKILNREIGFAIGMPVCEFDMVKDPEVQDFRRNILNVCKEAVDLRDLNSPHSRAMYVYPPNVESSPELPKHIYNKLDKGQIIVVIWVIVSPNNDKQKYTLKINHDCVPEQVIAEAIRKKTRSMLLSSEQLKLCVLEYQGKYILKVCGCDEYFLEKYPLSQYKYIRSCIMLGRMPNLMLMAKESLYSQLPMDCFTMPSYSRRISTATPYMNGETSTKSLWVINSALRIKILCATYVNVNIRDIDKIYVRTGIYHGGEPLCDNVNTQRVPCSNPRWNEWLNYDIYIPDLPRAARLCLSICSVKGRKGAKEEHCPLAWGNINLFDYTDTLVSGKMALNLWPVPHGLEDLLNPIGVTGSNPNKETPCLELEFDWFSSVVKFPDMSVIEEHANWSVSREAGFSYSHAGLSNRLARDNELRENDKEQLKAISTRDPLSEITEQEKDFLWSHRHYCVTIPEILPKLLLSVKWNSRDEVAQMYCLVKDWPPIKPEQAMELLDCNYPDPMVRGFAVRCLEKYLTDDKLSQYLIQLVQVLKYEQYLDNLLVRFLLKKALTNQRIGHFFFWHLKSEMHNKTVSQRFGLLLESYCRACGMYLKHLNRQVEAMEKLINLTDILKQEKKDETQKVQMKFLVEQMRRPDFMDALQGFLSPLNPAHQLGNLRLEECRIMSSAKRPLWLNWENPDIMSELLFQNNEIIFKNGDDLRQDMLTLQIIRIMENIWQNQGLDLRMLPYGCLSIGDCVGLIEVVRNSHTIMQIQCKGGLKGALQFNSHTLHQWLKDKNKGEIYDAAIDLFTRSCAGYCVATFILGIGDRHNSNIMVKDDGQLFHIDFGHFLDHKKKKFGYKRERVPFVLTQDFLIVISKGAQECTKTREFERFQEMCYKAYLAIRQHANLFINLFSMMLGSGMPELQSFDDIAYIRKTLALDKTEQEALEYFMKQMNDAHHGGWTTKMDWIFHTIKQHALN
PI3K, sequence (P27986 whole entry partner): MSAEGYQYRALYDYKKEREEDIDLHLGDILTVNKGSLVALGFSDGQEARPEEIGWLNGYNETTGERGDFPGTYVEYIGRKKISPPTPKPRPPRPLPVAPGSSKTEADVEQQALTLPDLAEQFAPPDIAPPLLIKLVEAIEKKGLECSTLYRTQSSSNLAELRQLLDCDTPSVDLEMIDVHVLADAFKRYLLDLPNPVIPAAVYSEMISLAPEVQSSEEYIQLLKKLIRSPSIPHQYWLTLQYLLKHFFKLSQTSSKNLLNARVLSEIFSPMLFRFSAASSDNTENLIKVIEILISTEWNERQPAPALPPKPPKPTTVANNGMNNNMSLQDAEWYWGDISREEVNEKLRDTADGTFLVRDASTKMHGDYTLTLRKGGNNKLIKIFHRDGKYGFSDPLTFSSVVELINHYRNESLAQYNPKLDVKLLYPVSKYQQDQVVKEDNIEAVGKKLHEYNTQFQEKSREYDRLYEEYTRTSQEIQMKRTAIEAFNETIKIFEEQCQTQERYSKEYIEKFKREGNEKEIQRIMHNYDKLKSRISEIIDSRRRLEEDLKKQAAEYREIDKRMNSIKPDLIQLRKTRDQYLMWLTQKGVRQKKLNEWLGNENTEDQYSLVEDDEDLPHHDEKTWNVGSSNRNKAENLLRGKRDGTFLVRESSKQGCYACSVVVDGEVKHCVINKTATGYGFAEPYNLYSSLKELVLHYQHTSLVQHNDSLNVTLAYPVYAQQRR

Compound | IC50
CNC(=O)Nc1ccc(-c2nc(N3CCOCC3)c3cnn(-c4ccccc4)c3n2)cc1 [Compound 543, 1-methyl-3-[4-(4-morpholin-4-yl-1-phenyl-1H-pyrazolo[3,4-d]pyrimidin-6-yl)phenyl]urea] | 50 nM
Cn1ncc2c(N3CCOCC3)nc(-c3cccnc3)nc21 [Compound 1] | 813 nM
Oc1cccc(-c2nc(N3CCOCC3)c3c(F)nn(-c4ccccc4)c3n2)c1 [Compound 964, 3-(3-fluoro-4-morpholin-4-yl-1-phenyl-1H-pyrazolo[3,4-d]pyrimidin-6-yl)phenol] | 70 nM
C[C@@H]1CN(c2nc(-c3cccc(O)c3)nc3c2cnn3-c2ccccc2)C[C@H](C)O1 [Compound 478, 3-{4-[(2R,6S)-2,6-dimethylmorpholin-4-yl]-1-phenyl-1H-pyrazolo[3,4-d]pyrimidin-6-yl}phenol] | 9500 nM
c1cncc(CN2CCC(n3ncc4c(N5CCOCC5)nc(-c5ccc6c(c5)CCN6)nc43)CC2)c1 [Compound 416, 6-(2,3-dihydro-1H-indol-5-yl)-4-morpholin-4-yl-1-[1-(pyridin-3-ylmethyl)piperidin-4-yl]-1H-pyrazolo[3,4-d]pyrimidine] | 1490 nM
Oc1cccc(-c2nc(N3CCSCC3)c3cnn(-c4ccccc4)c3n2)c1 [Compound 963, 3-(1-phenyl-4-thiomorpholin-4-yl-1H-pyrazolo[3,4-d]pyrimidin-6-yl)phenol] | 1620 nM
CC(=O)Nc1ccc(-c2nc(N3CCOCC3)c3cnn(C4CCN(C(=O)c5cccnc5)CC4)c3n2)cc1 [Example 221, N-(4-{4-morpholin-4-yl-1-[1-(pyridin-3-ylcarbonyl)piperidin-4-yl]-1H-pyrazolo[3,4-d]pyrimidin-6-yl}phenyl)acetamide] | 878 nM
CNC(=O)Nc1ccc(-c2nc(N3CCOCC3)c3cnn(C4CCN(Cc5ccco5)CC4)c3n2)cc1 [Compound 647, 1-(4-{1-[1-(2-furylmethyl)piperidin-4-yl]-4-morpholin-4-yl-1H-pyrazolo[3,4-d]pyrimidin-6-yl}phenyl)-3-methylurea] | 63 nM
c1ccc(CN2CCC(n3ncc4c(N5CCOCC5)nc(-c5ccc6ncccc6c5)nc43)CC2)cc1 [Compound 937, 6-[1-(1-benzylpiperidin-4-yl)-4-morpholin-4-yl-1H-pyrazolo[3,4-d]pyrimidin-6-yl]quinoline] | 466 nM
O=C(Nc1ccc(-c2nc(N3CCOCC3)c3cnn(C4CCN(Cc5ccccc5)CC4)c3n2)cc1)C(F)(F)F [Compound 299, N-{4-[1-(1-benzylpiperidin-4-yl)-4-morpholin-4-yl-1H-pyrazolo[3,4-d]pyrimidin-6-yl]phenyl}-2,2,2-trifluoroacetamide] | 1900 nM
CNC(=O)Nc1ccc(-c2nc(N3CCOCC3)c3cnn(C4CCN(C(=O)c5ccc[n+]([O-])c5)CC4)c3n2)cc1 [Example 328, 1-methyl-3-[4-(4-morpholin-4-yl-1-{1-[(1-oxidopyridin-3-yl)carbonyl]piperidin-4-yl}-1H-pyrazolo[3,4-d]pyrimidin-6-yl)phenyl]urea] | 198 nM
CNC(=O)Nc1ccc(-c2nc(N3CCOCC3)c3cnn(C4CCN(C(=O)c5ccncc5)CC4)c3n2)cc1 [Example 417, 1-{4-[1-(1-isonicotinoylpiperidin-4-yl)-4-morpholin-4-yl-1H-pyrazolo[3,4-d]pyrimidin-6-yl]phenyl}-3-methylurea] | 160 nM
COC(=O)Nc1ccc(-c2nc(N3CCOCC3)c3cnn(C4CCN(C(=O)c5ccc(F)cc5)CC4)c3n2)cc1 [Compound 689, methyl (4-{1-[1-(4-fluorobenzoyl)piperidin-4-yl]-4-morpholin-4-yl-1H-pyrazolo[3,4-d]pyrimidin-6-yl}phenyl)carbamate] | 989 nM
CN(C)CCC(=O)Nc1ccc(-c2nc(N3CCOCC3)c3cnn(-c4ccccc4)c3n2)cc1 [Compound 133] | 223 nM
CNC(=O)Nc1ccc(-c2nc(N3CCOCC3)c3cnn(-c4ccccc4)c3n2)cc1 [Example 297, 1-methyl-3-[4-(4-morpholin-4-yl-1-phenyl-1H-pyrazolo[3,4-d]pyrimidin-6-yl)phenyl]urea] | 51 nM
N#CN=C(N)Nc1ccc(-c2nc(N3CCOCC3)c3cnn(C4CCN(C(=O)c5cccnc5)CC4)c3n2)cc1 [Compound 655, 2-cyano-1-(4-{4-morpholin-4-yl-1-[1-(pyridin-3-ylcarbonyl)piperidin-4-yl]-1H-pyrazolo[3,4-d]pyrimidin-6-yl}phenyl)guanidine] | 344 nM
c1ccc(CN2CCC(n3ncc4c(N5CCOCC5)nc(-c5ccc6ncccc6c5)nc43)CC2)cc1 [Compound 369, 6-[1-(1-benzylpiperidin-4-yl)-4-morpholin-4-yl-1H-pyrazolo[3,4-d]pyrimidin-6-yl]quinoline] | 466 nM
FC(F)(F)CN1CCC(n2ncc3c(N4CCOCC4)nc(-c4ccc5[nH]ccc5c4)nc32)CC1 [Compound 715, 6-(1H-indol-5-yl)-4-morpholin-4-yl-1-[1-(2,2,2-trifluoroethyl)piperidin-4-yl]-1H-pyrazolo[3,4-d]pyrimidine] | 2880 nM
COC(=O)Nc1ccc(-c2nc(N3CCOCC3)c3cnn(C4CCN(Cc5ccc(F)cc5)CC4)c3n2)cc1 [Compound 959, methyl (4-{1-[1-(4-fluorobenzyl)piperidin-4-yl]-4-morpholin-4-yl-1Hpyrazolo[3,4-d]pyrimidin-6-yl}phenyl)carbamate] | 750 nM
CCNC(=O)Nc1ccc(-c2nc(N3CCOCC3)c3cnn(C4CCN(C(=O)c5cccnc5)CC4)c3n2)c(F)c1 [Compound 706, 1-ethyl-3-(3-fluoro-4-{4-morpholin-4-yl-1-[1-(pyridin-3-ylcarbonyl)piperidin-4-yl]-1H-pyrazolo[3,4-d]pyrimidin-6-yl}phenyl)urea] | 1620 nM
CCNC(=O)Nc1ccc(-c2nc(N3CCOCC3)c3cnn(C4CCN(Cc5cccnc5)CC4)c3n2)cn1 [Compound 479, 1-ethyl-3-(5-{4-morpholin-4-yl-1-[1-(pyridin-3-ylmethyl)piperidin-4-yl]-1H-pyrazolo[3,4-d]pyrimidin-6-yl}pyridin-2-yl)urea] | 138 nM
O=C(NCc1ccco1)Nc1ccc(-c2nc(N3CCOCC3)c3cnn(C4CCN(Cc5cccnc5)CC4)c3n2)cc1 [Compound 376, 1-(2-furylmethyl)-3-(4-{4-morpholin-4-yl-1-[1-(pyridin-3-ylmethyl)piperidin-4-yl]-1H-pyrazolo[3,4-d]pyrimidin-6-yl}phenyl)urea] | 359 nM

Further molecules by falling IC50, results first:

IC50 | Compound
2980 nM | O=C(NCCF)Nc1cc(F)c(-c2nc(N3CCOCC3)c3cnn(C4CCN(C(=O)c5cccnc5)CC4)c3n2)cc1F [Compound 711, 1-(2,5-difluoro-4-{4-morpholin-4-yl-1-[1-(pyridin-3-ylcarbonyl)piperidin-4-yl]-1H-pyrazolo[3,4-d]pyrimidin-6-yl}phenyl)-3-(2-fluoroethyl)urea]
2500 nM | COC(=O)Nc1ccc(-c2nc(N3CCOCC3)c3cnn(C4CCN(C(=O)c5cnccc5C)CC4)c3n2)cc1 [Example 440, methyl [4-(1-{1-[(4-methylpyridin-3-yl)carbonyl]piperidin-4-yl}-4-morpholin-4-yl-1H-pyrazolo[3,4-d]pyrimidin-6-yl)phenyl]carbamate]
1980 nM | C=CC(=O)N1CCC(n2ncc3c(N4CCOCC4)nc(-c4ccc(NC(=O)OC)cc4)nc32)CC1 [Compound 702, methyl {4-[1-(1-acryloylpiperidin-4-yl)-4-morpholin-4-yl-1H-pyrazolo[3,4-d]pyrimidin-6-yl]phenyl}carbamate]
1730 nM | O=C(NCCF)Nc1ccc(-c2nc(N3CCOCC3)c3cnn(C4CCN(C(=O)c5cccnc5)CC4)c3n2)c(F)c1 [Compound 707, 1-(2-fluoroethyl)-3-(3-fluoro-4-{4-morpholin-4-yl-1-[1-(pyridin-3-ylcarbonyl)piperidin-4-yl]-1H-pyrazolo[3,4-d]pyrimidin-6-yl}phenyl)urea]
1430 nM | COC(=O)Nc1ccc(-c2nc(N3CCOCC3)c3cnn(C4CCN(CC(N)=O)CC4)c3n2)cc1 [Compound 700, methyl (4-{1-[1-(2-amino-2-oxoethyl)piperidin-4-yl]-4-morpholin-4-yl-1H-pyrazolo[3,4-d]pyrimidin-6-yl}phenyl)carbamate]
1310 nM | c1cc2cc(-c3nc(N4CCOCC4)c4cnn(C5CCNCC5)c4n3)ccc2[nH]1 [Example 46]
916 nM | CCNC(=NC#N)Nc1ccc(-c2nc(N3CCOCC3)c3cnn(C4CCN(Cc5cccnc5)CC4)c3n2)cc1 [Compound 652, 2-cyano-1-ethyl-3-(4-{4-morpholin-4-yl-1-[1-(pyridin-3-ylmethyl)piperidin-4-yl]-1H-pyrazolo[3,4-d]pyrimidin-6-yl}phenyl)guanidine]
887 nM | CNC(=O)Nc1ccc(-c2nc(N3CCOCC3)c3cnn(C4CCN(C(=O)c5cccnc5)CC4)c3n2)c(F)c1 [Example 461, 1-(3-fluoro-4-{4-morpholin-4-yl-1-[1-(pyridin-3-ylcarbonyl)piperidin-4-yl]-1H-pyrazolo[3,4-d]pyrimidin-6-yl}phenyl)-3-methylurea]
548 nM | CNC(=O)Nc1ccc(-c2nc(N3CCOCC3)c3cnn(C4CCN(C(=O)c5cccnc5)CC4)c3n2)cc1 [Example 226, 1-methyl-3-(4-{4-morpholin-4-yl-1-[1-(pyridin-3-ylcarbonyl)piperidin-4-yl]-1H-pyrazolo[3,4-d]pyrimidin-6-yl}phenyl)urea]
404 nM | CC(=O)Nc1ccc(-c2nc(N3CCOCC3)c3cnn(C4CCN(Cc5cccnc5)CC4)c3n2)cc1 [Example 158, N-(4-{4-morpholin-4-yl-1-[1-(pyridin-3-ylmethyl)piperidin-4-yl]-1H-pyrazolo[3,4-d]pyrimidin-6-yl}phenyl)acetamide]
118 nM | CNC(=O)Nc1ccc(-c2nc(N3CCOCC3)c3cnn(C4CCCCO4)c3n2)cc1 (stereo not shown) [Compound 935, 1-methyl-3-{4-[4-morpholin-4-yl-1-(tetrahydro-2H-pyran-2-yl)-1H-pyrazolo[3,4-d]pyrimidin-6-yl]phenyl}urea]
71 nM | CNC(=S)Nc1ccc(-c2nc(N3CCOCC3)c3cnn(C4CCN(Cc5ccccc5)CC4)c3n2)cc1 [Example 325, 1-{4-[1-(1-benzylpiperidin-4-yl)-4-morpholin-4-yl-1H-pyrazolo[3,4-d]pyrimidin-6-yl]phenyl}-3-methylthiourea]
